Test results taken from patent publication US12338220B2, “Antiviral pyrazolopiridinone compounds” (Novartis AG, priority 2019, dated 2025).
Where two headings read alike, the source gives them in different places.

Tests used:
CMV-polymerase = CMV-polymerase (Human cytomegalovirus (strain AD169) (HHV-5) (Human herpesvirus 5), UniProt P08546); experiment: biochemical
CMV = experiment: microbe, parasite or virus in culture; assay type: cell-based; details: Human betaherpesvirus 5, 72 h, read-out: CMV-Luc Cellular EC50, NN-NHDF cells, MOI 1, 72 hrs
[1] = read-out: CMV-polymerase Biochemical IC50

| Structure (SMILES) | IC50 (CMV-polymerase; [1]) [nM] | EC50 (CMV) [nM] | IC50 (CMV-polymerase; CMV-polymerase Biochemical IC50) [nM] |
| --- | --- | --- | --- |
| Cn1nc(C(=O)NCc2ccc(C#N)cc2)c2c1C(=O)N(CC1(S(=O)(=O)N3CCC(N)CC3)CC1)CC2 [Example 138, 6-((1-((4-Aminopiperidin-1-yl)sulfonyl)cyclopropyl)methyl)-N-(4-cyanobenzyl)-1-methyl-7-oxo-4,5,6,7-tetrahydro-1H-pyrazolo[3,4-c]pyridine-3-carboxamide] | 21 | 127 |  |
| Cn1nc(C(=O)NCc2ccc(C#N)cc2)c2c1C(=O)N(CC1(S(=O)(=O)N3C[C@@H](N)[C@H](O)C3)CC1)CC2 [Example 139, 6-((1-(((3R,4R)-3-Amino-4-hydroxypyrrolidin-1-yl)sulfonyl)cyclopropyl)methyl)-N-(4-cyanobenzyl)-1-methyl-7-oxo-4,5,6,7-tetrahydro-1H-pyrazolo[3,4-c]pyridine-3-carboxamide] | 8 | 533 |  |
| Cn1nc(C(=O)NCc2ccc(C#N)cc2)c2c1C(=O)N(CC1(S(=O)(=O)N3C[C@H](N)[C@@H](O)C3)CC1)CC2 [Example 140, 6-((1-(((3S,4S)-3-Amino-4-hydroxypyrrolidin-1-yl)sulfonyl)cyclopropyl)methyl)-N-(4-cyanobenzyl)-1-methyl-7-oxo-4,5,6,7-tetrahydro-1H-pyrazolo[3,4-c]pyridine-3-carboxamide] | 11 | 418 |  |
| Cn1nc(C(=O)NCc2ccc(C#N)cc2)c2c1C(=O)N(CC1(S(=O)(=O)N3CC[C@@H](N)C3)CC1)CC2 [Example 141, (R)-6-((1-((3-Aminopyrrolidin-1-yl)sulfonyl)cyclopropyl)methyl)-N-(4-cyanobenzyl)-1-methyl-7-oxo-4,5,6,7-tetrahydro-1H-pyrazolo[3,4-c]pyridine-3-carboxamide] | 13 | 51 |  |
| Cn1nc(C(=O)NCc2ccc(C#N)cc2)c2c1C(=O)N(CC1(S(=O)(=O)N3CC[C@H](N)C3)CC1)CC2 [Example 142, (S)-6-((1-((3-Aminopyrrolidin-1-yl)sulfonyl)cyclopropyl)methyl)-N-(4-cyanobenzyl)-1-methyl-7-oxo-4,5,6,7-tetrahydro-1H-pyrazolo[3,4-c]pyridine-3-carboxamide] | 18 | 66 |  |
| Cn1nc(C(=O)NCc2ccc(Cl)cc2)c2c1C(=O)N(CC1(S(=O)(=O)NCCO)CC1)CC2 [Example 143, N-(4-Chlorobenzyl)-6-((1-(N-(2-hydroxyethyl)sulfamoyl)cyclopropyl)methyl)-1-methyl-7-oxo-4,5,6,7-tetrahydro-1H-pyrazolo[3,4-c]pyridine-3-carboxamide] | 19 | 138 |  |
| CN(CCO)S(=O)(=O)C1(CN2CCc3c(C(=O)NCc4ccc(Cl)cc4)nn(C)c3C2=O)CC1 [Example 144, N-(4-Chlorobenzyl)-6-((1-(N-(2-hydroxyethyl)-N-methylsulfamoyl)cyclopropyl)methyl)-1-methyl-7-oxo-4,5,6,7-tetrahydro-1H-pyrazolo[3,4-c]pyridine-3-carboxamide] | 4 | 44 |  |
| Cn1nc(C(=O)NCc2ccc(C#N)cc2)c2c1C(=O)N(CC1(S(=O)(=O)NCCO)CC1)CC2 [Example 145, N-(4-Cyanobenzyl)-6-((1-(N-(2-hydroxyethyl)sulfamoyl)cyclopropyl)methyl)-1-methyl-7-oxo-4,5,6,7-tetrahydro-1H-pyrazolo[3,4-c]pyridine-3-carboxamide] | 14 | 303 |  |
| CN(CCO)S(=O)(=O)C1(CN2CCc3c(C(=O)NCc4ccc(C#N)cc4)nn(C)c3C2=O)CC1 [Example 146, N-(4-Cyanobenzyl)-6-((1-(N-(2-hydroxyethyl)-N-methylsulfamoyl)cyclopropyl)methyl)-1-methyl-7-oxo-4,5,6,7-tetrahydro-1H-pyrazolo[3,4-c]pyridine-3-carboxamide] | 3 | 61 |  |
| CN(C(CO)CO)S(=O)(=O)C1(CN2CCc3c(C(=O)NCc4ccc(C#N)cc4)nn(C)c3C2=O)CC1 [Example 147, N-(4-Cyanobenzyl)-6-((1-(N-(1,3-dihydroxypropan-2-yl)-N-methylsulfamoyl)cyclopropyl)methyl)-1-methyl-7-oxo-4,5,6,7-tetrahydro-1H-pyrazolo[3,4-c]pyridine-3-carboxamide] | 30 | 604 |  |
| Cn1nc(C(=O)NCc2ccc(Cl)cc2)c2c1C(=O)N(CC1(S(=O)(=O)NC(C)(C)CO)CC1)CC2 [Example 148, N-(4-Chlorobenzyl)-6-((1-(N-(1-hydroxy-2-methylpropan-2-yl)sulfamoyl)cyclopropyl)methyl)-1-methyl-7-oxo-4,5,6,7-tetrahydro-1H-pyrazolo[3,4-c]pyridine-3-carboxamide] | 15 | 139 |  |
| Cn1nc(C(=O)NCc2ccc(C#N)cc2)c2c1C(=O)N(CC1(S(=O)(=O)NC(C)(C)CO)CC1)CC2 [Example 149, N-(4-Cyanobenzyl)-6-((1-(N-(1-hydroxy-2-methylpropan-2-yl)sulfamoyl)cyclopropyl)methyl)-1-methyl-7-oxo-4,5,6,7-tetrahydro-1H-pyrazolo[3,4-c]pyridine-3-carboxamide] | 12 | 166 |  |
| Cn1nc(C(=O)NCc2ccc(Cl)cc2)c2c1C(=O)N(CC1(S(=O)(=O)N3CC(O)C3)CC1)CC2 [Example 150, N-(4-Chlorobenzyl)-6-((1-((3-hydroxyazetidin-1-yl)sulfonyl)cyclopropyl)methyl)-1-methyl-7-oxo-4,5,6,7-tetrahydro-1H-pyrazolo[3,4-c]pyridine-3-carboxamide] | 6 | 67 |  |
| CNS(=O)(=O)C1(CN2CCc3c(C(=O)NCc4ccc(Cl)cc4)nn(C)c3C2=O)CC1 [Example 151, N-(4-Chlorobenzyl)-1-methyl-6-((1-(N-methylsulfamoyl)cyclopropyl)methyl)-7-oxo-4,5,6,7-tetrahydro-1H-pyrazolo[3,4-c]pyridine-3-carboxamide] | 8 | 64 |  |
| Cn1nc(C(=O)NCc2ccc(Cl)cc2)c2c1C(=O)N(CC1(S(=O)(=O)NCC(C)(C)O)CC1)CC2 [Example 152, N-(4-Chlorobenzyl)-6-((1-(N-(2-hydroxy-2-methylpropyl)sulfamoyl)cyclopropyl)methyl)-1-methyl-7-oxo-4,5,6,7-tetrahydro-1H-pyrazolo[3,4-c]pyridine-3-carboxamide] | 30 | 834 |  |
| Cn1nc(C(=O)NCc2ccc(Cl)cc2)c2c1C(=O)N(CC1(S(=O)(=O)NC(C)(CO)CO)CC1)CC2 [Example 153, N-(4-Chlorobenzyl)-6-((1-(N-(1,3-dihydroxy-2-methylpropan-2-yl)sulfamoyl)cyclopropyl)methyl)-1-methyl-7-oxo-4,5,6,7-tetrahydro-1H-pyrazolo[3,4-c]pyridine-3-carboxamide] | 20 | 305 |  |
| Cn1nc(C(=O)NCc2ccc(C#N)cc2)c2c1C(=O)N(CC1(S(=O)(=O)Nc3ccccn3)CC1)CC2 [Example 155, N-(4-cyanobenzyl)-1-methyl-7-oxo-6-((1-(N-(pyridin-2-yl)sulfamoyl)cyclopropyl)methyl)-4,5,6,7-tetrahydro-1H-pyrazolo[3,4-c]pyridine-3-carboxamide] |  | 57 | 2 |
| Cn1ccc(NS(=O)(=O)C2(CN3CCc4c(C(=O)NCc5ccc(C#N)cc5)nn(C)c4C3=O)CC2)n1 [Example 156, N-(4-Cyanobenzyl)-1-methyl-6-((1-(N-(1-methyl-1H-pyrazol-3-yl)sulfamoyl)cyclopropyl)methyl)-7-oxo-4,5,6,7-tetrahydro-1H-pyrazolo[3,4-c]pyridine-3-carboxamide] | 3 | 100 |  |
| Cc1cccc(NS(=O)(=O)C2(CN3CCc4c(C(=O)NCc5ccc(C#N)cc5)nn(C)c4C3=O)CC2)n1 [Example 157, N-(4-Cyanobenzyl)-1-methyl-6-((1-(N-(6-methylpyridin-2-yl)sulfamoyl)cyclopropyl)methyl)-7-oxo-4,5,6,7-tetrahydro-1H-pyrazolo[3,4-c]pyridine-3-carboxamide] | 2 | 58 |  |
| Cn1nc(C(=O)NCc2ccc(Cl)cc2)c2c1C(=O)N(CC1(S(=O)(=O)Nc3ccccn3)CC1)CC2 [Example 158, N-(4-Chlorobenzyl)-1-methyl-7-oxo-6-((1-(N-(pyridin-2-yl)sulfamoyl)cyclopropyl)methyl)-4,5,6,7-tetrahydro-1H-pyrazolo[3,4-c]pyridine-3-carboxamide] | 3 | 37 |  |
| COc1cccnc1NS(=O)(=O)C1(CN2CCc3c(C(=O)NCc4ccc(C#N)cc4)nn(C)c3C2=O)CC1 [Example 159, N-(4-Cyanobenzyl)-6-((1-(N-(3-methoxypyridin-2-yl)sulfamoyl)cyclopropyl)methyl)-1-methyl-7-oxo-4,5,6,7-tetrahydro-1H-pyrazolo[3,4-c]pyridine-3-carboxamide] | 13 | 298 |  |
| COc1ccc(C)nc1NS(=O)(=O)C1(CN2CCc3c(C(=O)NCc4ccc(C#N)cc4)nn(C)c3C2=O)CC1 [Example 160, N-(4-Cyanobenzyl)-6-((1-(N-(3-methoxy-6-methylpyridin-2-yl)sulfamoyl)cyclopropyl)methyl)-1-methyl-7-oxo-4,5,6,7-tetrahydro-1H-pyrazolo[3,4-c]pyridine-3-carboxamide] | 6 | 118 |  |
| Cc1ncccc1NS(=O)(=O)C1(CN2CCc3c(C(=O)NCc4ccc(C#N)cc4)nn(C)c3C2=O)CC1 [Example 161, N-(4-Cyanobenzyl)-1-methyl-6-((1-(N-(2-methylpyridin-3-yl)sulfamoyl)cyclopropyl)methyl)-7-oxo-4,5,6,7-tetrahydro-1H-pyrazolo[3,4-c]pyridine-3-carboxamide] | 2 | 61 |  |
| COc1ncccc1NS(=O)(=O)C1(CN2CCc3c(C(=O)NCc4ccc(C#N)cc4)nn(C)c3C2=O)CC1 [Example 162, N-(4-Cyanobenzyl)-6-((1-(N-(2-methoxypyridin-3-yl)sulfamoyl)cyclopropyl)methyl)-1-methyl-7-oxo-4,5,6,7-tetrahydro-1H-pyrazolo[3,4-c]pyridine-3-carboxamide] | 1 | 30 |  |
